Results published in the NIST ThermoML archive (doi:10.1016/j.fluid.2014.04.038).
Several values for one entry are separate records, joined by “and”; a condition that tells them apart may be missing. Identical values can stand only once.

Details: Hot wire method

CCF [fluoroethane]
Liquid
Details	thermal conductivity
294.9 K	0.1096 W/m/K
294.91 K	0.1093 W/m/K
294.94 K	0.1112 W/m/K and 0.1104 W/m/K
294.95 K	0.111 W/m/K
295.22 K	0.11 W/m/K and 0.1098 W/m/K
304.39 K	0.1056 W/m/K
304.4 K	0.1056 W/m/K
304.41 K	0.1057 W/m/K
304.67 K	0.1054 W/m/K
304.68 K	0.1056 W/m/K and 0.1052 W/m/K
305.07 K	0.1055 W/m/K
305.19 K	0.1057 W/m/K and 0.1058 W/m/K
314.36 K	0.1007 W/m/K and 0.1002 W/m/K
314.38 K	0.1003 W/m/K
314.4 K	0.1003 W/m/K and 0.1012 W/m/K
314.46 K	0.1013 W/m/K
314.68 K	0.1009 W/m/K
314.69 K	0.1008 W/m/K
314.7 K	0.1003 W/m/K
314.71 K	0.1011 W/m/K and 0.1008 W/m/K
314.72 K	0.1006 W/m/K
315.05 K	0.1008 W/m/K
315.06 K	0.1007 W/m/K
315.07 K	0.1005 W/m/K and 0.101 W/m/K and 0.1008 W/m/K
315.08 K	0.1002 W/m/K
324.64 K	0.09597 W/m/K and 0.09452 W/m/K
324.66 K	0.09557 W/m/K
324.85 K	0.09515 W/m/K
324.86 K	0.09533 W/m/K
324.87 K	0.09498 W/m/K
325.28 K	0.09515 W/m/K
325.29 K	0.09565 W/m/K
325.3 K	0.09512 W/m/K

Gas
Details	thermal conductivity [W/m/K]
295.76 K, 779.2 kPa	0.01526
295.78 K, 690.7 kPa	0.0151
295.97 K, 520.7 kPa	0.01551
296.2 K, 275.3 kPa	0.01553
297.07 K, 690.7 kPa	0.01526
297.24 K, 520.7 kPa	0.01534
297.64 K, 275.3 kPa	0.01544
298.46 K, 520.7 kPa	0.01532
299.03 K, 275.3 kPa	0.01558
305.63 K, 712.7 kPa	0.01677
305.93 K, 916.4 kPa	0.0163
306.16 K, 227 kPa	0.01673
306.42 K, 1035 kPa	0.01653
306.59 K, 712.7 kPa	0.01627
306.71 K, 504.3 kPa	0.01683
306.93 K, 916.4 kPa	0.01663
306.93 K, 1035 kPa	0.01725
306.97 K, 227 kPa	0.01654
307.36 K, 1035 kPa	0.01661
307.57 K, 504.3 kPa	0.01663
307.89 K, 227 kPa	0.01643
315.53 K, 1227.4 kPa	0.01838
315.63 K, 1202.4 kPa	0.01779
315.79 K, 316.7 kPa	0.01783
315.81 K, 1005.9 kPa	0.01828
315.87 K, 807.4 kPa	0.01738
316.01 K, 1341.3 kPa	0.01815
316.27 K, 1202.4 kPa	0.01803
316.4 K, 1005.9 kPa	0.01789
316.4 K, 1341.3 kPa	0.01835
316.53 K, 1162.6 kPa	0.01796
316.59 K, 807.4 kPa	0.01737
316.83 K, 613.8 kPa	0.01747
316.94 K, 1202.4 kPa	0.0181
317.06 K, 1341.3 kPa	0.01801
317.12 K, 1005.9 kPa	0.01811
318.31 K, 316.7 kPa	0.01787
321.99 K, 1292.4 kPa	0.01904
322.07 K, 1292.4 kPa	0.01921
322.37 K, 797.5 kPa	0.01858
322.59 K, 797.5 kPa	0.01847
323.36 K, 797.5 kPa	0.01857
324.32 K, 1700.6 kPa	0.01997
324.97 K, 1700.6 kPa	0.0202
325.27 K, 1362.6 kPa	0.01957
325.45 K, 1700.6 kPa	0.02011
326.1 K, 1362.6 kPa	0.01993
326.61 K, 1095.3 kPa	0.0197
326.64 K, 968 kPa	0.01935
326.71 K, 798.3 kPa	0.01946
326.98 K, 999.2 kPa	0.01933
